Data from patent US4217357A, “Inhibition of thromboxane synthetase with 3-(imidazol-1-ylalkyl)indoles” (Pfizer Inc., priority 1978, dated 1980).

How the values were obtained:
cyclo-oxygenase enzyme = conditions: in words; cited from earlier work
[1] = tested on: human blood platelet aggregation; conditions: variety of aggregating agents; cited from earlier work
stroke and heart attack = conditions: clinical evaluation; cited from earlier work
rabbit = conditions: intravenous arachidonic acid, rabbits; cited from earlier work
prostacyclin synthetase [2] = molecular target: T1, prostacyclin synthetase (Sus scrofa, UniProt A0A5G2QT35); test: Prostacyclin (PGI2) synthetase in vitro enzyme assay; format: biochemical; conditions: pig aorta microsomes, PGH2, 22° C., 30 seconds; 5 min pre-incubation; read-out: Concentration causing 50% inhibition of (3) prostacyclin synthetase
T1 construct: Pig aorta microsomes; from tissue; host or cells: pig aorta microsomes
T1 sequence (A0A5G2QT35 1-497): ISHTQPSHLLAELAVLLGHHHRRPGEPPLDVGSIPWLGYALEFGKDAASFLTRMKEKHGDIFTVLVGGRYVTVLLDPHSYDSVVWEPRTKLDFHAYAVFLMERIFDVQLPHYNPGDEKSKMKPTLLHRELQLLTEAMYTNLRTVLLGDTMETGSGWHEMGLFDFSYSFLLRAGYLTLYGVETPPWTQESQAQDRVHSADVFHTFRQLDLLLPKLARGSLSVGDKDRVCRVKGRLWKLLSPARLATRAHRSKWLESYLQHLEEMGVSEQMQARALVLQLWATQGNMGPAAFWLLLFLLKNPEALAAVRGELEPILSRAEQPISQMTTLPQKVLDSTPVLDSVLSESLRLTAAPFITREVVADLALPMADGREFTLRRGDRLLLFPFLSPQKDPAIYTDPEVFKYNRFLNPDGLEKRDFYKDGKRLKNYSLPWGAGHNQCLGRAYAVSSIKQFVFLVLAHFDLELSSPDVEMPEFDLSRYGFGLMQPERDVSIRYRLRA

cyclo-oxygenase = molecular target: T2, cyclo-oxygenase (Ovis aries, UniProt P05979); test: Cyclo-oxygenase in vitro enzyme assay; format: biochemical; conditions: ram seminal vesicle microsomes, arachidonic acid 100 μM, 22° C., 1 min; 5 min pre-incubation; read-out: Concentration causing 50% inhibition of (2) cyclo-oxygenase
T2 construct: Ram seminal vesicle microsomes; from tissue; host or cells: ram seminal vesicle microsomes
T2 sequence (P05979 25-600): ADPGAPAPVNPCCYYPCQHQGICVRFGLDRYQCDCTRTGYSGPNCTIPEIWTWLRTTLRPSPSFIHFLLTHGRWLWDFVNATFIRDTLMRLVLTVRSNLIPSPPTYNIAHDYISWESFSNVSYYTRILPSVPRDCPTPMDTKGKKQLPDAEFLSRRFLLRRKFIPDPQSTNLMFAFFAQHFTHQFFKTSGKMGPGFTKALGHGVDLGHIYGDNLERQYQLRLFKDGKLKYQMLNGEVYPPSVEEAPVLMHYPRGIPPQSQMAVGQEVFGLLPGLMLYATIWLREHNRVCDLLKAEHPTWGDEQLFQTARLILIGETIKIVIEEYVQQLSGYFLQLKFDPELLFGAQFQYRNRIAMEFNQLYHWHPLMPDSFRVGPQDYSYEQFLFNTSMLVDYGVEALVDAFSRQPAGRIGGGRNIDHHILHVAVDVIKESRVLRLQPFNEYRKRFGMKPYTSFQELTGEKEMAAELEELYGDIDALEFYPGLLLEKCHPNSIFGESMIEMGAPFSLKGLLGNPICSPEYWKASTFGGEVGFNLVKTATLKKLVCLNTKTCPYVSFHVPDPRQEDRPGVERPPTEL
Method: The effect of the compounds of the formula (I) on the thromboxane synthetase enzyme, and the prostacyclin synthetase and cyclo-oxygenase enzymes has been measured by the following in vitro enzyme assay tests:
Ram seminal vesicle microsomes (Biochemistry, 1971, 10, 2372) are incubated with arachidonic acid (100 μM) at 22° C. for a period of one minute so as to produce PGH2, and aliquots of this reaction mixture are then injected into a stream of Krebs-bicarbonate at 37° C. [containing a mixture of antagonists (Nature, […], 218, 1135) and indomethacin (Brit. J. Pharmacol., 1972, 45, 451)] which is superfusing a spirally-cut rabbit aorta strip (Nature, 1969, 223, 29). The ability of a compound to inhibit the enzyme is measured by comparing the increases in isometric tension produced by PGH2 in the absence of the test compound and again, following pre-incubation of the enzyme with the test compound for a period of five minutes.

thromboxane synthetase = molecular target: T3, thromboxane synthetase (Homo sapiens, UniProt P24557); test: Thromboxane A2 (TxA2) synthetase in vitro enzyme assay; format: biochemical; conditions: for IC50: indomethacin-pretreated human platelet microsomes, PGH2, 0° C., 2 min, 5 min pre-incubation, read-out: Concentration causing 50% inhibition of (1) thromboxane synthetase; for Ratio of (3) to (1): prostacyclin synthetase / thromboxane synthetase 50% inhibition concentrations
T3 construct: Indomethacin-pretreated human platelet microsomes; from tissue; host or cells: human platelet microsomes
T3 sequence (P24557 1-533): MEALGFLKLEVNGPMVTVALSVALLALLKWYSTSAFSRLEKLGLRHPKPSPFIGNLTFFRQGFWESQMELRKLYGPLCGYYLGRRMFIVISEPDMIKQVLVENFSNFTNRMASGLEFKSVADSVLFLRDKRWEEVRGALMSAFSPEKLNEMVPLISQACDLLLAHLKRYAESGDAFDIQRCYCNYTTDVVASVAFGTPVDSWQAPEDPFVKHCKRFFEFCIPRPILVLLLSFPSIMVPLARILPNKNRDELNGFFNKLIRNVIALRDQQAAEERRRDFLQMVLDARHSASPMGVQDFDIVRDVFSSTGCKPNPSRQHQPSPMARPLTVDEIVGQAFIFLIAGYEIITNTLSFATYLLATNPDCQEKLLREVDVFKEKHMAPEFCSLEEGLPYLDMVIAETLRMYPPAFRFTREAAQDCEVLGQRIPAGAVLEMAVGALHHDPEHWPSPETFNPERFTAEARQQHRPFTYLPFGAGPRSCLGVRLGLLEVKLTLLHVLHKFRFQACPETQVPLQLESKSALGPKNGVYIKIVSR
Method: Indomethacin-pretreated human platelet microsomes (Science, 1976, 193, 163) are incubated with PGH2 (produced as described in test No. 1) at 0° C. for a period of two minutes, and aliquots of the reaction mixture are then superfused over two rabbit aorta spirals which are separated by a delay coil (2 min.). The latter is required in order to allow for the selective decay of the more unstable thromboxane A2 (Proc. Nat. Acad. Sci., 1975, 72, 2994), thereby enabling separate measurement of the increased isometric tension due to the TxA2 formed and the PGH2 remaining to take place. The test compound is then pre-incubated with the enzyme for a period of five minutes, and its ability to inhibit the thromboxane synthetase enzyme is measured as its reduction of the TxA2 component of the isometric tension.

prostacyclin synthetase [3] = molecular target: T1, prostacyclin synthetase; conditions: pre-incubation of the enzyme with the selective PGI2 synthetase inhibitor; cited from earlier work
aggregation of platelets = conditions: abdominal aorta of rats in vivo; cited from earlier work

| Compound | IC50 (prostacyclin synthetase [2]) [µM] | IC50 (cyclo-oxygenase) [µM] | IC50 (thromboxane synthetase) [µM] | Ratio of (3) to (1) (thromboxane synthetase) | further results |
| --- | --- | --- | --- | --- | --- |
| CC(=O)Oc1ccccc1C(=O)O [aspirin] |  |  |  |  | effect on prostacyclin and thromboxane A2 levels (cyclo-oxygenase enzyme): reduce both the prostacyclin and thromboxane A2 levels; inhibition of the cyclo-oxygenase enzyme (cyclo-oxygenase enzyme): inhibit the cyclo-oxygenase enzyme; inhibitory activity in vitro against aggregating agents [1]: show inhibitory activity in vitro; clinical results in prevention of stroke and heart attack (stroke and heart attack): some encouraging results; protection from the lethal effect of arachidonic acid injection (rabbit): protect the rabbit from the lethal effect of the injection |
| Oc1ccc(-c2[nH]c3ccccc3c2Cn2ccnc2)cc1 [L, 2-(p-hydroxyphenyl)-3-(imidazol-1-ylmethyl)indole] | 3 | > 100 | 0.0066 | 450 |  |
| CCCCCC(/C=C/C=C\C/C=C\C/C=C\CCCC(=O)O)OO (centres unmarked) [15-hydroperoxy-arachidonic acid] |  |  |  |  | prevention of the decrease in PGH2-induced tension (prostacyclin synthetase [3]): prevented completely |
| O=C1C(CC[S+]([O-])c2ccccc2)C(=O)N(c2ccccc2)N1c1ccccc1 (centres unmarked) [sulphinpyrazone] |  |  |  |  | prevention of aggregation of platelets in extra corporeal loop (aggregation of platelets): prevent the aggregation of platelets; inhibitory activity in vitro against aggregating agents [1]: show inhibitory activity in vitro; protection from the lethal effect of arachidonic acid injection (rabbit): protect the rabbit from the lethal effect of the injection |
| Cn1cc(Cn2ccnc2)c2ccccc21 [XXVII, 3-(imidazol-1-ylmethyl)-1-methylindole] | > 100 | > 100 | 0.002 | > 50,000 |  |
| Cc1cccc2c(Cn3ccnc3)c[nH]c12 [Example X, 3-(imidazol-1-ylmethyl)-7-methylindole] | > 100 | > 100 | 0.0084 | > 12,000 |  |
| Brc1ccc2[nH]cc(Cn3ccnc3)c2c1 [IX, 5-bromo-3-(imidazol-1-ylmethyl)indole] | 17 | > 100 | 0.1 | 170 |  |
| c1ccc2c(Cn3ccnc3)c(C3CCCCC3)[nH]c2c1 [XII, 2-cyclohexyl-3-(imidazol-1-ylmethyl)indole] | 21 | > 100 | 0.0003 | 70,000 |  |
| c1ccc2c(Cn3ccnc3)c[nH]c2c1 [*, 3-(imidazol-1-ylmethyl)-indole] | 650 | > 1000 | 0.03 | 22,000 |  |
| CC(C)c1[nH]c2ccccc2c1Cn1ccnc1 [Example I, 3-(imidazol-1-ylmethyl)-2-isopropylindole] | > 100 | > 100 | 0.017 | > 6,000 |  |
| Cc1ccc(-c2[nH]c3ccccc3c2Cn2ccnc2)cc1 [XVII, 3-(imidazol-1-ylmethyl)-2-(p-tolyl)indole] | 2 | > 100 | 0.00025 | 8,000 |  |

Further compounds by falling IC50 (prostacyclin synthetase [2]), results first:

| IC50 (prostacyclin synthetase [2]) [µM] | IC50 (cyclo-oxygenase) [µM] | IC50 (thromboxane synthetase) [µM] | Ratio of (3) to (1) (thromboxane synthetase) | Compound | further results |
| --- | --- | --- | --- | --- | --- |
| 100 | > 100 | 0.2 | 500 | COc1ccc2[nH]cc(Cn3ccnc3)c2c1 [IV, 3-(imidazol-1-ylmethyl)-5-methoxyindole] |  |
| 30 | > 100 | 0.012 | 2,500 | Cc1[nH]c2ccccc2c1Cn1ccnc1 [II, 3-(imidazol-1-ylmethyl)-2-methylindole] |  |
| 4 | > 100 | 0.062 | 65 | COc1ccc2[nH]c(C)c(Cn3ccnc3)c2c1 [Example V, 3-(imidazol-1-ylmethyl)-5-methoxy-2-methylindole] |  |
| 1.7 | > 100 | 0.002 | 850 | O=C(c1ccccc1)n1cc(Cn2ccnc2)c2ccccc21 [Example XL, 1-benzoyl-3-(imidazol-1-ylmethyl)indole] |  |
| 1 | > 100 | 0.065 | 15 | Cl.c1ccc(Cn2cc(Cn3ccnc3)c3ccccc32)cc1 [Example XXVI, 1-benzyl-3-(imidazol-1-ylmethyl)indole hydrochloride] |  |
| 0.84 | > 100 | 0.0001 | 8,400 | c1ccc2c(Cn3ccnc3)c(C3CC3)[nH]c2c1 [XIII, 2-cyclopropyl-3-(imidazol-1-ylmethyl)indole] |  |
